The text below walks through data of patent US20230061736A1, “GPR119 AGONISTS” (Kallyope, Inc., priority 2019, published 2023).

Molecules are shown by their SMILES.

For the assay, the target named is T1, human GPR119 (hGPR119) (Homo sapiens, UniProt Q8TDV5).
T1 construct: expressed in transfected cells
T1 sequence (Q8TDV5 1-335): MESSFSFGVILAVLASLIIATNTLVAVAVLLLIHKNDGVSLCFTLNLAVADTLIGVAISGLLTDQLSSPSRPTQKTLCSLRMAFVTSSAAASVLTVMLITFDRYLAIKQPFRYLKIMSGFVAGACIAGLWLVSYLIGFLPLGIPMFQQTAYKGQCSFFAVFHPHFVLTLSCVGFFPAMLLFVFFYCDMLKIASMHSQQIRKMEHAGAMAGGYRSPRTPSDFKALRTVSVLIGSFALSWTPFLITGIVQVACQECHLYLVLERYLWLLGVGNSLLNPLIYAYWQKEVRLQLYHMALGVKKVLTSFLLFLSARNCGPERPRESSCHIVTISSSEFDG
Kind of assay: cAMP accumulation assay (cAMP Gs dynamic HTRF kit). It counts as cell-based. As to conditions: CHO-K1 cells stably expressing hGPR119, 4-parameter fit; for Emax: 1 h, % activity normalized to Max/Min controls; for EC50: cAMP accumulation. Summed up: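 CHO-K1 cells stably expressing hGPR119, used as assay-ready frozen stocks at ~10,000 cells/well, exposed to compound dose-response in stimulation buffer with Tween 80 for 60 min at 37° C. cAMP read by HTRF (665/620 nm ratio), normalised to Max/Min controls; EC50 and Max activity from 4-parameter fit.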
On the technique in general: cAMP levels reflect the balance of adenylyl cyclase and phosphodiesterase activity.

`O=C(Cc1ccc(OCCCC2CCN(c3ncc(Cl)cn3)CC2)cc1F)N1CCC(O)(C(=O)NC[C@H](O)[C@@H](O)[C@H](O)[C@H](O)CO)C1` (stereo partly drawn) [Example 181, 1-[2-[4-[3-[1-(5-chloropyrimidin-2-yl)-4-piperidyl]propoxy]-2-fluoro-phenyl]acetyl]-3-hydroxy-N-[(2S,3R,4R,5R)-2,3,4,5,6-pentahydroxyhexyl]pyrrolidine-3-carboxamide] had an Emax of 100 to 130% and a half-maximal effective concentration (EC50) not above 100 nM.

In turn, `O=C(Cc1ccc(OCCCC2CCN(c3ncc(Cl)cn3)CC2)cc1F)NCCCCCC(=O)NC(CO)CO` [Example 17, 6-[[2-[4-[3-[1-(5-chloropyrimidin-2-yl)-4-piperidyl]propoxy]-2-fluoro-phenyl]acetyl]amino]-N-[2-hydroxy-1-(hydroxymethyl)ethyl]hexanamide] displayed an Emax not below 130% and an EC50 of 100 to 1000 nM.

`O=C(NCC(O)(CO)CO)C1CCN(C(=O)Cc2ccc(OCCCC3CCN(c4ncc(Cl)cn4)CC3)cc2F)CC1` [Example 41, 1-[2-[4-[3-[1-(5-chloropyrimidin-2-yl)-4-piperidyl]propoxy]-2-fluoro-phenyl]acetyl]-N-[2,3-dihydroxy-2-(hydroxymethyl)propyl]piperidine-4-carboxamide]: the maximal response (Emax) was 100 to 130% and the concentration for a half-maximal effect (EC50) was in the range of 100 to 1000 nM.

In turn, `CCOc1cnc(N2CCC(CCCOc3cc(F)c(CC(=O)N4CC[C@@H](CNC[C@H](O)[C@@H](O)[C@H](O)[C@H](O)CO)C4)c(F)c3)CC2)nc1` [Example 134, 2-[4-[3-[1-(5-ethoxypyrimidin-2-yl)-4-piperidyl]propoxy]-2,6-difluoro-phenyl]-1-[(3S)-3-[[[(2S,3R,4R,5R)-2,3,4,5,6-pentahydroxyhexyl]amino]methyl]pyrrolidin-1-yl]ethanone] returned an Emax of 100 to 130% and an EC50 not above 100 nM.

As to `O=C(CC1CN(C(=O)Cc2ccc(OCCCC3CCN(c4ncc(Cl)cn4)CC3)cc2F)C1)NCCS(=O)(=O)O` [Example 176, 2-[[2-[1-[2-[4-[3-[1-(5-chloropyrimidin-2-yl)-4-piperidyl]propoxy]-2-fluoro-phenyl]acetyl]azetidin-3-yl]acetyl]amino]ethanesulfonic acid], the maximum response (Emax) lay within 100 to 130% and the EC50 lay within 100 to 1000 nM.

As for `O=C(Cc1ccc(OCCC2CC23CCN(c2ncc(Cl)cn2)CC3)cc1F)N1CC(CNC[C@H](O)[C@@H](O)[C@H](O)[C@H](O)CO)C1` (stereo partly drawn) [Example 110, 2-[4-[2-[6-(5-chloropyrimidin-2-yl)-6-azaspiro[2.5]octan-2-yl]ethoxy]-2-fluoro-phenyl]-1-[3-[[[(2S,3R,4R,5R)-2,3,4,5,6-pentahydroxyhexyl]amino]methyl]azetidin-1-yl]ethanone], the Emax is 100 to 130% and the 50% effective concentration (EC50) lay within 100 to 1000 nM.

With `O=C(Cc1ccc(OCCCC2CCN(c3ncc(Cl)cn3)CC2)cc1F)NCCCCCNC(CO)CO` [Example 1, 2-[4-[3-[1-(5-chloropyrimidin-2-yl)-4-piperidyl]propoxy]-2-fluoro-phenyl]-N-[5-[[2-hydroxy-1-(hydroxymethyl)ethyl]amino]pentyl]acetamide], the maximal response (Emax) is not below 130% and the EC50 is 100 to 1000 nM.

Compound `O=C(Cc1ccc(OCCCC2CCN(c3ncc(Cl)cn3)CC2)cc1F)N1CC(CNCC(O)(CO)CO)C1` [Example 43, 2-[4-[3-[1-(5-chloropyrimidin-2-yl)-4-piperidyl]propoxy]-2-fluoro-phenyl]-1-[3-[[[2,3-dihydroxy-2-(hydroxymethyl)propyl]amino]methyl]azetidin-1-yl]ethanone] showed a maximal response (Emax) of 100 to 130% and an EC50 not above 100 nM.

For `O=C(OCCC1CCN(c2ncc(Cl)cn2)CC1)c1ccc(CC(=O)N2CC(CNC[C@H](O)[C@@H](O)[C@H](O)[C@H](O)CO)C2)c(F)c1` (racemic) [Example 91, 2-[1-(5-chloropyrimidin-2-yl)-4-piperidyl]ethyl 3-fluoro-4-[2-oxo-2-[3-[[[rac-(2S,3R,4R,5R)-2,3,4,5,6-pentahydroxyhexyl]amino]methyl]azetidin-1-yl]ethyl]benzoate], the Emax is 100 to 130% and the half-maximal effective concentration (EC50) is 1000 to 10000 nM.

As usually defined, the Emax is the maximal effect, on the per cent scale that the assay sets. As a reminder, the EC50 is the midpoint of the concentration-response curve. Low readings indicate a more potent agent, high ones a less potent agent.
